Data set [1] in a line: Theacrine-caffeine interaction study: single oral dose plasma pharmacokinetics (LC-MS/MS, noncompartmental). The class given is in vivo, human. An excerpt:
Theacrine pharmacokinetics in humans has not been systematically characterized. Therefore, one purpose of this study, among others, was to determine theacrine pharmacokinetics and dose-linearity following oral administration in humans.
Eight healthy nonsmokers, including 4 men and 4 women, were recruited for the experiment.
(§1) Study Design and Procedures. […] Theacrine, administered as iTeaCrine.®, was provided by Compound Solutions (Carlsbad, Calif). […] Treatment sequence was randomized using a 4×4 Latin square. There was an approximate 1-week washout period between treatments for all subjects.
(§2) Test Visit Procedures. […] A catheter was inserted into the forearm vein for blood sampling. Duplicate measurements of resting heart rate and blood pressure were taken pre-dose and prior to each timed blood sample. In addition, respiratory rate was counted in one minute and body temperature was measured using an ear scanning thermometer (dual readings taken at each time).
All subjects were instructed to consume their usual diet throughout the study period, with the exception of the actual days of testing. During the two days prior to each test day, subjects recorded all food and drink consumed and attempted to mimic this intake for the two-day period prior to subsequent visits. Diet records were analyzed using nutrient analysis software (Food Processor SQL, version 9.9; ESHA Research, Salem, Oreg.). For the actual test days, standardized meals (meal replacement food bars [Clif “Builder's 20 g Protein Bar”] and ready-to-drink shakes [Orgain Organic Nutrition™]) were provided to the subjects after sample collection at hour 2 and hour 6 (one shake and one-half bar at each time). Subjects were also provided with adequate meal replacement bars and shakes to consume following the 8 hour sample collection. (during their time outside the lab). Each bar contained 280 calories, 10 grams of fat, 29 grams of carbohydrate, and 20 grams of protein. Each shake contained 250 calories, 7 grams of fat, 32 grams of carbohydrate, and 16 grams of protein. No food other than what was provided to the subjects was allowed during each study day, including both time spent in the lab and outside the lab. […] The subjects returned the following morning for the 24 hour blood collection, again in a 10 hour fasted state. The same volume of meal replacement bars or shakes was consumed by each subject during each visit (both in lab and outside lab).
Pharmacokinetic Study. Plasma concentration-time data were evaluated using noncompartmental methods in Phoenix WinNonlin (version 7.0; Pharsight Corporation, Mountain View, Calif) with adjustment for lag time after oral administration. The maximum concentration (Cmax), lag time (talag), and time of maximum concentration (tmax) were determined from the plasma concentration versus time data. The area under the plasma concentration-time curve from time 0 to infinity (was calculated using the trapezoidal rule extrapolated to time infinity). […] The oral clearance (CL/F) was calculated by dividing the oral dose by AUC0-∞. The apparent volume of distribution during the terminal elimination phase (Vz/F) was calculated by dividing CL/F by k. […]

The nature of data set [2]: Theacrine-caffeine interaction study: heart rate, blood pressure, rate pressure product, tolerability. As to conditions: at the doses tested, administered alone or in combination.
Text: as §1, §2
Differences between treatment group values were determined for systolic blood pressure (SBP), diastolic blood pressure (DBP), rate pressure product, and heart rate. Parametric data were analyzed by paired Student's t tests of mean differences in values between treatment groups. Statistical significance was defined a priori as a 2-sided or <0.05.

Data set [3] is described as follows: Single dose theacrine, caffeine or combination: subjective feelings on 10 cm visual analog scale. Type of data set: in vivo, human. The method, then:
Subjects rated their subjective feelings using a 10 cm visual analog scale at 30 minutes, 1, 2, 3, 4, and 5 hours post ingestion and performed the trail making test (TMT) of cognitive performance at baseline and at hours 2 and 4 post ingestion.

Data set [4] in a line: Fourteen day study of repetitive dosing of theacrine and caffeine: psychometric indices. The class given is in vivo, human.
Setting [5] is: both sexes, human, in vivo, 150 mg.
Where [6] appears, read: from baseline to 2 hours post-ingestion.

Data on 2 compounds can be found in US11925645B2, “Enhanced caffeinated beverage composition” (Ortho-Nutra, LLC, priority 2013, dated 2024).

Read-outs that look alike come from different tables or passages of the source.

One may read the MRT as the average time that molecules of a dose stay in the body. One may read the Vd/F as the volume of distribution divided by bioavailability. The term CL/F denotes the apparent clearance, not corrected for the fraction that reaches the circulation. Broadly, the Tmax is the time at which the peak concentration occurs.

In data set [1] (setting [5]), `Cn1c(=O)c2c(ncn2C)n(C)c1=O` [Caffeine, caffeine, reference compound] showed an MRT of 8.4 ± 4.3 h and a half-life of 6.2 ± 3.8 h. In data set [1] (both sexes, human, in vivo, 150 mg, Vd/F), this compound came in with a Vd/F of 33.5 ± 13.7 L. This compound gave a dose-adjusted Cmax in data set [1] (both sexes, human, in vivo, po, 150 mg) of 33.4 ± 9.5 ng/mL/mg. In addition, the “caffeine pharmacokinetics following caffeine alone or caffeine plus theacrine co-ingestion” value in data set [1] (caffeine 150 mg vs theacrine 125 mg + caffeine 150 mg) is “similar”. In data set [1] (human, in vivo, 150 mg), the AUC amounted to 262.0 ± 74.1 ng·h/mL/mg and the CL/F is 4.1 ± 1.1 L/h. Besides, the “effect on baseline hemodynamic parameters, e.g. heart rate and blood pressure” value in data set [2] was “no effect”. Also, in data set [3] (caffeine 150 mg, 125 mg theacrine and 150 mg caffeine), the “self-reported motivation to exercise” value is recorded as “significantly increased”. For the same compound, in data set [3] (setting [6]), the motivation to exercise entry is “significantly increased”, the sense of energy entry is given as “significantly increased” and the subjective focus entry is given as “significant increase”. Further, in data set [4], the anxiety result is reported as “increased anxiety scores”; the “psychometric indices of energy, focus, concentration, motivation and mood” value was “decreasing levels of energy, focus and concentration by Day 5”.
In the case of `Cn1c(=O)[nH]c2ncn(C)c2c1=O` [Paraxanthine, paraxanthine], in data set [1] (both sexes, human, plasma, oral, 150 mg), the Tmax came to 5 h. Also, the dose-adjusted Cmax in data set [1] (both sexes, human, plasma, oral, 150 mg, paraxanthine in plasma, Condition 3: Caffeine 150 mg, dose-adjusted, mean ± SD) came to 7.3 ± 1.5 ng/mL/mg; in data set [1] (both sexes, human, plasma, oral, paraxanthine in plasma, Condition 4: Theacrine 125 mg + Caffeine 150 mg, dose-adjusted, mean ± SD), 8.4 ± 3.5 ng/mL/mg. Moreover, the MRT in data set [1] (both sexes, human, plasma, oral, 150 mg, read-out: MRT) stood at 19.1 ± 18.6 h. For the same compound, the half-life in data set [1] (both sexes, human, plasma, oral, 150 mg, read-out: t1/2 (converted)) is 12.5 ± 12.7 h. Besides, the AUC in data set [1] (paraxanthine in plasma, Condition 3: Caffeine 150 mg, dose-adjusted, mean ± SD) came out at 174 ± 152 ng·h/mL/mg; in data set [1] (paraxanthine in plasma, Condition 4: Theacrine 125 mg + Caffeine 150 mg, dose-adjusted, mean ± SD), 209 ± 202 ng·h/mL/mg.
